According to patent publication US9908912B2, “Triclosan derivatives and uses thereof” (priority 2012, dated 2018):
In brackets after ≈: the same amount, converted by molar mass.

Tests used:
[1] = tested on: Staph. saprophyticus ATCC 15305; assay: MIC in Nutrient Broth No. 2; assay type: cell-based, Staphylococcus saprophyticus; details: Staphylococcus saprophyticus, ATCC15305; Nutrient Broth No. 2, 24 h, 37° C.; inducer not specified; read-out: MIC
Procedure: (§1) Bacteria species as indicated in Table 1 were incubated for approximately 24 hours at 37° C.
(§2) The tests were repeated with the addition of inducers. Methyl glycoside was the main inducer used, but other suitable inducers include isopropyl-β-D-thiogalactopyranoside, p-nitrophenyl-α-L-arabinopyranoside and p-nitrophenyl-β-D-xylopyranoside. Concentration of inducer in all cases was 100 μg/ml.

[2] = tested on: Ps. Aeruginosa ATCC 27853; assay: MIC in Nutrient Broth No. 2; assay type: cell-based; details: Pseudomonas aeruginosa, ATCC27853; Nutrient Broth No. 2, 24 h, 37° C.; inducer not specified; read-out: MIC
Procedure: as §1, §2

[3] = tested on: Citrobacter freundii OCC 851; assay: MIC in Nutrient Broth No. 2; assay type: cell-based; details: Citrobacter freundii, OCC851; Nutrient Broth No. 2, 24 h, 37° C.; inducer not specified; read-out: MIC
Procedure: as §1, §2

[4] = tested on: Aeromonas hydrophila OCC 778; assay: MIC in Nutrient Broth No. 2; assay type: cell-based; details: Aeromonas hydrophila, OCC778; Nutrient Broth No. 2, 24 h, 37° C.; inducer not specified; read-out: MIC
Procedure: as §1, §2

[5] = tested on: Bacillus subtilis NCTC 10073; assay: MIC in Nutrient Broth No. 2; assay type: cell-based; details: Bacillus subtilis, NCTC10073; Nutrient Broth No. 2, 24 h, 37° C.; inducer not specified; read-out: MIC
Procedure: as §1, §2

[6] = tested on: Proteus mirabilis ATCC 12453; assay: MIC in Nutrient Broth No. 2; assay type: cell-based; details: Proteus mirabilis, ATCC12453; Nutrient Broth No. 2, 24 h, 37° C.; inducer not specified; read-out: MIC
Procedure: as §1, §2

[7] = tested on: Enterococcus faecium ATCC 19434; assay: MIC in Nutrient Broth No. 2; assay type: cell-based; details: Enterococcus faecium, ATCC19434; Nutrient Broth No. 2, 24 h, 37° C.; inducer not specified; read-out: MIC
Procedure: as §1, §2

Salmonella = assay: MIC in Nutrient Broth No. 2; assay type: cell-based; details: Salmonella; 11 strains; Nutrient Broth No. 2, 24 h, 37° C.; inducer not specified; read-out: MIC
Procedure: as §1, §2

Hafnia alvei ATCC 13337 = assay: MIC in Nutrient Broth No. 2; assay type: cell-based; details: Hafnia alvei, ATCC13337; Nutrient Broth No. 2, 24 h, 37° C.; inducer not specified; read-out: MIC
Procedure: as §1, §2

[8] = tested on: Enterobacter aerogenes ATCC 13048; assay: MIC in Nutrient Broth No. 2; assay type: cell-based; details: Klebsiella aerogenes, ATCC13048; Nutrient Broth No. 2, 24 h, 37° C.; inducer not specified; read-out: MIC
Procedure: as §1, §2

[9] = tested on: Serratia marcescens OCC 217; assay: MIC in Nutrient Broth No. 2; assay type: cell-based; details: Serratia marcescens, OCC217; Nutrient Broth No. 2, 24 h, 37° C.; inducer not specified; read-out: MIC
Procedure: as §1, §2

Proteus vulgaris OCC 195 = assay: MIC in Nutrient Broth No. 2; assay type: cell-based; details: Proteus vulgaris, OCC195; Nutrient Broth No. 2, 24 h, 37° C.; inducer not specified; read-out: MIC
Procedure: as §1, §2

Escherichia coli = assay: MIC in Nutrient Broth No. 2; assay type: cell-based; details: Escherichia coli; 8 strains; Nutrient Broth No. 2, 24 h, 37° C.; inducer not specified; read-out: MIC
Procedure: as §1, §2

[10] = tested on: Enterococcus faecalis ATCC 29212; assay: MIC in Nutrient Broth No. 2; assay type: cell-based; details: Enterococcus faecalis, ATCC29212, 24 h
Procedure: as §1, §2

[11] = tested on: Bacillus cereus ATCC 14579; assay: MIC in Nutrient Broth No. 2; assay type: cell-based; details: Bacillus cereus, ATCC14579; Nutrient Broth No. 2, 24 h, 37° C.; inducer not specified; read-out: MIC
Procedure: as §1, §2

Staph. aureus = assay: MIC in Nutrient Broth No. 2; assay type: cell-based, Staphylococcus aureus; details: Staphylococcus aureus; 8 strains; Nutrient Broth No. 2, 24 h, 37° C.; inducer not specified; read-out: MIC
Procedure: as §1, §2

[12] = tested on: Bacteria species as indicated in Table 1; assay: MIC in Nutrient Broth No. 2 (over organisms of Table 1); assay type: cell-based; details: Table 1 organisms
Procedure: as §1, §2

[13] = tested on: Strep. agalactiae OCC 182; assay: MIC in Nutrient Broth No. 2; assay type: cell-based, Streptococcus agalactiae; details: Streptococcus agalactiae, OCC182; Nutrient Broth No. 2, 24 h, 37° C.; inducer not specified; read-out: MIC
Procedure: as §1, §2

E. hermanii ATCC 33650 = assay: MIC in Nutrient Broth No. 2; assay type: cell-based, Escherichia hermanii; details: Atlantibacter hermannii, ATCC33650; Nutrient Broth No. 2, 24 h, 37° C.; inducer not specified; read-out: MIC
Procedure: as §1, §2

[14] = tested on: Staph. haemolyticus OCC 2223; assay: MIC in Nutrient Broth No. 2; assay type: cell-based, Staphylococcus haemolyticus; details: Staphylococcus haemolyticus, OCC2223; Nutrient Broth No. 2, 24 h, 37° C.; inducer not specified; read-out: MIC
Procedure: as §1, §2

[15] = tested on: Kleb. pneumoniae ATCC 10031; assay: MIC in Nutrient Broth No. 2; assay type: cell-based, Klebsiella pneumoniae; details: Klebsiella pneumoniae, ATCC10031; Nutrient Broth No. 2, 24 h, 37° C.; inducer not specified; read-out: MIC
Procedure: as §1, §2

[16] = tested on: Strep. pneumoniae ATCC 6305; assay: MIC in Nutrient Broth No. 2; assay type: cell-based, Streptococcus pneumoniae; details: Streptococcus pneumoniae, ATCC6305; Nutrient Broth No. 2, 24 h, 37° C.; inducer not specified; read-out: MIC
Procedure: as §1, §2

Staph. epidermidis = assay: MIC in Nutrient Broth No. 2; assay type: cell-based, Staphylococcus epidermidis; details: Staphylococcus epidermidis; 3 strains; Nutrient Broth No. 2, 24 h, 37° C.; inducer not specified; read-out: MIC
Procedure: as §1, §2

Strep. viridans OCC 234 = assay: MIC in Nutrient Broth No. 2; assay type: cell-based, Streptococcus viridans; details: Streptococcus viridans, OCC234; Nutrient Broth No. 2, 24 h, 37° C.; inducer not specified; read-out: MIC
Procedure: as §1, §2

[17] = tested on: Kleb. aerogenes NCTC 88167; assay: MIC in Nutrient Broth No. 2; assay type: cell-based, Klebsiella aerogenes; details: Klebsiella aerogenes, NCTC88167; Nutrient Broth No. 2, 24 h, 37° C.; inducer not specified; read-out: MIC
Procedure: as §1, §2

Ent. cloacae ATCC 13047 = assay: MIC in Nutrient Broth No. 2; assay type: cell-based, Enterobacter cloacae; details: Enterobacter cloacae, ATCC13047; Nutrient Broth No. 2, 24 h, 37° C.; inducer not specified; read-out: MIC
Procedure: as §1, §2

[18] = tested on: Crono. sakazakii ATCC 29544; assay: MIC in Nutrient Broth No. 2; assay type: cell-based, Cronobacter sakazakii; details: Cronobacter sakazakii, ATCC29544; Nutrient Broth No. 2, 24 h, 37° C.; inducer not specified; read-out: MIC
Procedure: as §1, §2

[19] = tested on: Strep. pyogenes ATCC 19615; assay: MIC in Nutrient Broth No. 2; assay type: cell-based, Streptococcus pyogenes; details: Streptococcus pyogenes, ATCC19615; Nutrient Broth No. 2, 24 h, 37° C.; inducer not specified; read-out: MIC
Procedure: as §1, §2

**Q.** `Oc1cc(Cl)ccc1Oc1ccc(Cl)cc1Cl` [Triclosan, 5-chloro-2-(2,4-dichlorophenoxy)phenol] was tested. Which MIC [1] did it give?
**A.** The MIC was 0.01 µg/mL (≈ 0.0345 µM).

**Q.** And the MIC [2]?
**A.** The MIC was 32 µg/mL (≈ 111 µM).

**Q.** And the MIC [3]?
**A.** Its MIC is 0.5 µg/mL (≈ 1.73 µM).

**Q.** What about the MIC [4] of the same compound?
**A.** Its MIC is 8 µg/mL (≈ 27.6 µM).

**Q.** And the MIC [5]?
**A.** The MIC was 1 µg/mL (≈ 3.45 µM).

**Q.** What about the MIC [6] of the same compound?
**A.** Its MIC is 0.5 µg/mL (≈ 1.73 µM).

**Q.** And the MIC [7]?
**A.** The MIC was 4 µg/mL (≈ 13.8 µM).

**Q.** And the MIC (Salmonella)?
**A.** Its MIC is 0.5 to 1 µg/mL (≈ 1.73 to 3.45 µM).

**Q.** What about the MIC (Hafnia alvei ATCC 13337) of the same compound?
**A.** Its MIC is 0.1 µg/mL (≈ 0.345 µM).

**Q.** What about the MIC [8] of the same compound?
**A.** The MIC was 0.5 µg/mL (≈ 1.73 µM).

**Q.** What about the MIC [9] of the same compound?
**A.** Its MIC is 64 µg/mL (≈ 221 µM).

**Q.** And the MIC (Proteus vulgaris OCC 195)?
**A.** The MIC was 0.5 µg/mL (≈ 1.73 µM).

**Q.** And the MIC (Escherichia coli)?
**A.** The MIC was 0.1 to 0.5 µg/mL (≈ 0.345 to 1.73 µM).

**Q.** And the MIC [10]?
**A.** Its MIC is 8 µg/mL (≈ 27.6 µM).

**Q.** And the MIC [11]?
**A.** Its MIC is 2 µg/mL (≈ 6.91 µM).

**Q.** And the MIC (Staph. aureus)?
**A.** The MIC was 0.01 µg/mL (≈ 0.0345 µM).

**Q.** And the “susceptibility of the organisms that were tested” value [12]?
**A.** The value was “inhibited”.

**Q.** And the MIC [13]?
**A.** Its MIC is 4 µg/mL (≈ 13.8 µM).

**Q.** What about the MIC (E. hermanii ATCC 33650) of the same compound?
**A.** The MIC was 0.5 µg/mL (≈ 1.73 µM).

**Q.** What about the MIC [14] of the same compound?
**A.** The MIC was 0.01 µg/mL (≈ 0.0345 µM).

**Q.** What about the MIC [15] of the same compound?
**A.** The MIC was 0.1 µg/mL (≈ 0.345 µM).

**Q.** And the MIC [16]?
**A.** The MIC was 1 µg/mL (≈ 3.45 µM).

**Q.** And the MIC (Staph. epidermidis)?
**A.** The MIC was 0.01 µg/mL (≈ 0.0345 µM).

**Q.** What about the MIC (Strep. viridans OCC 234) of the same compound?
**A.** Its MIC is 4 µg/mL (≈ 13.8 µM).

**Q.** And the MIC [17]?
**A.** The MIC was 0.5 µg/mL (≈ 1.73 µM).

**Q.** And the MIC (Ent. cloacae ATCC 13047)?
**A.** Its MIC is 0.5 µg/mL (≈ 1.73 µM).

**Q.** And the MIC [18]?
**A.** The MIC was 0.5 µg/mL (≈ 1.73 µM).

**Q.** What about the MIC [19] of the same compound?
**A.** The MIC was 1 µg/mL (≈ 3.45 µM).
